From US20140308207A1, “OPEN MICROFLUIDIC DEVICES FOR CHEMOTAXIS, METHODS OF USING SAME, AND APPLICATIONS OF SAME” (priority 2013, published 2014)

How the values were obtained:
[1] = test system: Dictyostelium discoideum cells; settings: AX2 cells expressing RBD-GFP, 10 μM cAMP, bulk silica device, cells A-E tracked
Excerpt: (Jowhar, et al., 2010.) D. discoideum cells expressing the Ras Binding Domain of Rafl and fused to the green fluorescent protein (RBD-GFP) were loaded into the open cell ports and exposed to gradients of the chemoattractant cAMP, as shown in FIG. 1E. […] Each 3 mm cell loading port was exposed to three different sources of cAMP (from three 3.0 μm gradient generating ports) under the control of a syringe or Harvard apparatus pump, which serves as a chemoattractant supply device. The syringe pump was used to apply a constant positive pressure to the loaded syringe, thus, preventing fluctuations in the gradient from potential backflow created by negative pressure.
A number of solitary cells that could be followed continuously were tracked using the Cell Tracker program written in LabVIEW™ software (FIG. 3a).
The starting point for each cell is marked with and X. Scale bar is 10 μm. In the table as shown in FIG. 3(b), V, C.I., and P represent velocity (microns/min.), chemotactic index, and persistence, respectively. The same cells were measured at different points along the traveled path to the source and are scored more than once. […]
In order to visualize the migration of cells and record the specifics of chemotactic response; a program was written with LabVIEW™ software. […] The measured centroids are overlayed on the image data so that the tracking of the cell can be visually verified.

[2] = test system: Dictyostelium discoideum cells
Excerpt: Cells were readily loaded by micropipetting into the cell loading area where they were allowed to settle and adhere to the silica cover slip. The channels were primed with buffer by a syringe; we observed that the cells randomly migrated on the surface. Once the cells adhered, cAMP was pumped in to form a chemoattractant gradient. To perform this function, a Harvard apparatus pump was used to create positive pressure on the chemoattractant loaded syringe.
As shown in FIG. 6(a), tracks of seven individual cells (A-G) migrating toward the cAMP source openings (open circles). The starting point for each cell is marked with and X. Scale bar is 20 μm. B.) Quantitation of the migration parameters for cells A-G. In the table as shown in FIG. 6(b), V, C.I., and P represent velocity (microns/min.), chemotactic index, and persistence, respectively. The multiple data points in the table for cells A-G represent different sections of the path as the cell traveled toward the cAMP source.
The cell buffer was used for water immersion.
The device was connected to an inlet and outlet syringe on a Harvard Apparatus syringe pump using microfluidic tubing. […]
In order to visualize the migration of cells and record the specifics of chemotactic response; a program was written with LabVIEW™ software. […] The measured centroids are overlayed on the image data so that the tracking of the cell can be visually verified. […]

myeloid cells = assay: Intravital imaging of a mouse with microfluidic coverslip; assay type: in vivo; settings: 50 ng/ml added through coverslip device

| Compound | chemotaxis indices and persistence toward the source [1] | chemotaxis indices and persistence ([2]; AX2 cells expressing RBD-GFP, 100 nM cAMP, silica coverslip device with five ports, cells A-G tracked) | cell migration toward gradient ports ([2]; cells expressing LimE-RFP, cover slip device with three 15 μm ports, upright microscope, 80-minute series) | migration rates of myeloid cells (myeloid cells) |
| --- | --- | --- | --- | --- |
| Nc1ncnc2c1ncn2[C@@H]1O[C@@H]2COP(=O)(O)O[C@H]2[C@H]1O [cAMP, cyclic adenosine monophosphate] | strong chemotaxis indices and persistence | good chemotaxis indices and persistence | rapidly migrated towards and into the cAMP gradient cover slip ports |  |
| epidermal growth factor: growth factor added through the microfluidic coverslip to alter myeloid cell migration |  |  |  | migration rates altered |
